Converted amounts (≈) assume the structure as drawn.
Experiments:
[1] = tested on: A-549; assay: IC50 growth inhibition, A-549 monolayer culture (crystal violet); format: cell-based; details: Homo sapiens, A549, 72 h, three days, 37° C., 10% CO2, crystal violet 0.1%, approximate IC50, in duplicate
Protocol: (§1) Cell cultures: The cells were kept in logarithmic phase of growth in Eagle's Minimum Essential Medium, with Earle's Balanced Salts, with L-gluatamine 2.0 mM, with non-essential amino acids and without sodium bicarbonate (EMEM-NEAA); supplemented with Fetal Calf Serum (FCS) 10% sodium bicarbonate 10^-2 and with 0.1 g/l penicillin-G+-streptomycin sulfate.
(§2) To determine and to compare the antitumor activity of these compounds, a simple screening process was carried out using an adapted form of the method described by Bergeron et al. (1984) ((1) Raymond J. Bergeron, Paul F. Cavanaugh, Jr., Steven J. Kline, Robert G. Hughes, Jr., Gary T. Elliot and Carl W. Porter. Antineoplastic and antiherpetic activity of spermidine catecholamide iron chelators. Biochem. Bioph. Res. Comm. 1984, 121 (3), 848-854; (2) Alan C. Schroeder, Robert G. Hughes, Jr. and Alexander Bloch. Effects of Acyclic pyrimidine nucleoside analogues. J. Med. Chem. 1981, 24, 1078-1083). The antitumor cells used have been P-388 (culture in DBA/2 mouse lymphoid neoplasm suspension), A-549 (human lung carcinoma monolayer culture); HT-29 human colon carcinoma monolayer culture) and MEL (human melanoma monolayer culture).
(§3) The A-549, HT-29 and MEL-28 cells were seeded in 16 mm cups at […] cells per cup in aliquots of […] of MEM 10FCS that contain the indicated drug concentration. Separately, a batch of cultures without any drug was seeded as a growth control to ensure that the cells were kept in a logarithmic phase of growth. All the determinations were carried out in duplicate. After three days of incubation at 37° C., 10% CO2 in an atmosphere with 98% humidity, the cups were stained with crystal violet 0.1%. The approximate IC50 was determined by comparing the growth in the cups with the drug and the growth in the control cups.

[2] = tested on: P-388; assay: IC50 growth inhibition, P-388 suspension culture; format: cell-based, DBA/2 mouse; details: Mus musculus, P388, 72 h, three days, 37° C., 10% CO2, approximate IC50, in duplicate
Protocol: as §1, §2
The P-388 cells were seeded in 16 mm cups at 1×10^4 cells per cup in aliquots at 1 ml. MEM 5FCS that contains the indicated drug concentration. Separately, a batch of cultures without any drug was seeded as a growth control to ensure that the cells were kept in a logarithmic phase of growth. All the determinations were carried out in duplicate. After three days of incubation at 37° C., 10% CO2 in an atmosphere with 98% humidity, the approximate IC50 was determined by comparing the growth in the cups with the drug and the control cups.

[3] = tested on: HT-29; assay: IC50 growth inhibition, HT-29 monolayer culture (crystal violet); format: cell-based; details: Homo sapiens, 72 h, three days, 37° C., 10% CO2, crystal violet 0.1%, approximate IC50, in duplicate
Protocol: as §1, §2, §3

[4] = tested on: MEL-28; assay: IC50 growth inhibition, MEL-28 monolayer culture (crystal violet); format: cell-based; details: Homo sapiens, SK-MEL-28, 72 h, three days, 37° C., 10% CO2, crystal violet 0.1%, approximate IC50, in duplicate
Protocol: as §1, §2, §3

[5] = tested on: Gram positive bacteria; details: cited from earlier work
[6] = tested on: thymidilate synthetase; details: cited from earlier work

Row | SMILES | IC50 [1] | IC50 [2] | IC50 [3] | IC50 [4] | activity against Gram positive bacteria [5] | capacity to inhibit thymidilate synthetase [6]
1 | CC1=C(C)CC2C(=O)c3c(C)cc(=O)[nH]c3C(=O)C2C1 (stereo not shown) [(I-a), 4,6,7-trimethyl-5,8,8a,10a-tetrahydro-1H-1-azaathracen-2,9,10-trione] | 0.25 µg/mL (≈ 0.921 µM) | 1 µg/mL (≈ 3.69 µM) | 1 µg/mL (≈ 3.69 µM) |  |  | 
2 | CCOc1nc2c(cc1C)C(=O)c1ccccc1C2=O [(I-b), 2-ethoxy-3-methyl-1-azaanthracen-9,10-dione] | 0.25 µg/mL (≈ 0.935 µM) | 5 µg/mL (≈ 18.7 µM) | 10 µg/mL (≈ 37.4 µM) | 5 µg/mL (≈ 18.7 µM) |  | 
3 | CCc1cc2c([nH]c1=O)C(=O)c1[nH]c(=O)cc(C)c1C2=O [(I-c)] | 0.025 µg/mL (≈ 0.0879 µM) | 0.1 µg/mL (≈ 0.352 µM) | 0.1 µg/mL (≈ 0.352 µM) | 0.1 µg/mL (≈ 0.352 µM) |  | 
4 | CC(=O)c1cc2c([nH]c1=O)C(=O)c1ncc(C)cc1C2=O [(I-d)] | 0.25 µg/mL (≈ 0.886 µM) | 1 µg/mL (≈ 3.54 µM) | 1 µg/mL (≈ 3.54 µM) | 0.25 µg/mL (≈ 0.886 µM) |  | 
5 | Cc1cc(=O)[nH]c2c1C(=O)c1cc(F)cnc1C2=O [(I-e), 6-fluoro-4-methyl-1H,1,8-diazaanthracen-2,9,10-trione] | 0.02 µg/mL (≈ 0.0775 µM) | 0.005 µg/mL (≈ 0.0194 µM) | 0.05 µg/mL (≈ 0.194 µM) | 0.05 µg/mL (≈ 0.194 µM) |  | 
6 | Cc1cc(=O)[nH]c2c1C(=O)c1cc(N(C)C)cnc1C2=O [(I-f), 6-dimethylamino-4-methyl-1H-1,8-diazaanthracen-2,9,10-trione] | 0.02 µg/mL (≈ 0.0706 µM) | 0.02 µg/mL (≈ 0.0706 µM) | 0.02 µg/mL (≈ 0.0706 µM) | 0.02 µg/mL (≈ 0.0706 µM) |  | 
7 | Cc1cc(=O)[nH]c2c1C(=O)C1=C(NC=CC1c1ccccc1[N+](=O)[O-])C2=O (stereo not shown) [(I-g), 4-methyl-5-(2-nitrophenyl)-5,8-dihydro-1H-1,8-diazaanthracen-2,9,10-trione] | 0.05 µg/mL (≈ 0.138 µM) | 0.5 µg/mL (≈ 1.38 µM) | 0.05 µg/mL (≈ 0.138 µM) | 0.1 µg/mL (≈ 0.275 µM) |  | 
8 | Cc1cc(=O)[nH]c2c1C(=O)c1cc(C)c(=O)[nH]c1C2=O [(I-h), 3,5-dimethyl-1,8-dihydro-1,8-diazaanthracen-2,7,9,10-tetraone] | 0.05 µg/mL (≈ 0.185 µM) | 0.05 µg/mL (≈ 0.185 µM) | 0.05 µg/mL (≈ 0.185 µM) | 0.025 µg/mL (≈ 0.0925 µM) |  | 
9 | O=C1c2cc(F)cnc2C(=O)c2ncc(F)cc21 [(I-i), 3,6-difluoro-1,8-diazaanthracen-9,10-dione] | 0.1 µg/mL (≈ 0.406 µM) | 0.025 µg/mL (≈ 0.102 µM) | 0.1 µg/mL (≈ 0.406 µM) | 0.025 µg/mL (≈ 0.102 µM) |  | 
10 | Cc1cnc2c(c1)C(=O)c1cc(-c3ccccc3)c(=O)[nH]c1C2=O [(I-j), 6-methyl-3-phenyl-1H-1,8-diazaanthracen-2,9,10-trione] | 5 µg/mL (≈ 15.8 µM) | 2.5 µg/mL (≈ 7.9 µM) | 10 µg/mL (≈ 31.6 µM) | > 10 µg/mL |  | 
11 | CC1C(F)=CNC2=C1C(=O)c1ccccc1C2=O (stereo not shown) [(I-k), 3-fluoro-4-methyl-1,4-dihydro-1-azaanthracen-9,10-dione] | 0.25 µg/mL (≈ 1.03 µM) | 0.25 µg/mL (≈ 1.03 µM) | 0.25 µg/mL (≈ 1.03 µM) | 0.12 µg/mL (≈ 0.493 µM) |  | 
12 | O=C1c2ccccc2C(=O)c2ncc(F)cc21 [(I-l), 3-fluoro-1-azaanthracen-9,10-dione] | 0.05 µg/mL (≈ 0.22 µM) | 0.25 µg/mL (≈ 1.1 µM) | 0.25 µg/mL (≈ 1.1 µM) | 0.05 µg/mL (≈ 0.22 µM) |  | 
13 | CCCc1c2c([nH]c(=O)c1C)C(=O)c1[nH]c(=O)c(C)c(CCC)c1C2=O [Diazaquinomycin A] |  |  |  |  | goods activity against Gram positive bacteria | capacity to inhibit thymidilate synthetase
